In experiment [1] the test system is wheat embryogenic calluses induced from scutellar tissues. The experiment is described as follows: Shoot regeneration from embryogenic calluses on RZ regeneration medium supplemented with CuSO4. Type of experiment: cell-based. As to conditions: for optimum range of copper concentration: number of plants regenerated per callus. The protocol:
The primary culture explants were immature embryos or scutella. Wheat caryopses containing early-medium milk-stage grains with translucent embryos were harvested and surface-sterilised in 70% ethanol for 5 min and 0.5% hypochlorite solution for 15 min. Under aseptic conditions, embryos of approximately 0.5-1.0 mm length were isolated and either cultured entirely or the embryo axes were removed to produce isolated scutella. Thirty embryos/scutella were placed in the center (18 mm target circle) of a 90 mm Petri dish containing callus induction medium. The callus induction medium for embryos/scutellar tissues, called MD0.5, consisted of solidified (0.5% […], Sigma A3301) modified MS medium supplemented with 9% sucrose, 10 mg l^-1 AgNO3 and 0.5 mg l^-1 2,4-D (Rasco-Gaunt et al., 2001 J. Exp. Bot. 52 (357): 865-874). Embryos/scutella were placed with the embryo-axis side in contact with the medium. Cultures were incubated at 25±1° C. in darkness for approximately 24 hr before bombardment. Embryogenic calluses were transferred, for regeneration, to RZ regeneration medium and cultured under 12 h light (250 μE s^-1 m^-2, from cool white fluorescent tubes) at 25+1° C. for three weeks. The RZ regeneration medium, contained L salts, vitamins and myo-inositol, 3% w/v maltose, 0.1 mg l^-1 2,4-D and 5 mg l^-1 zeatin (Rasco-Gaunt and Barcelo, 1999 Plant Cell Culture Protocols. Methods in Molecular Biology series. Hall, RD ed. 111: 71-81, Humana Press, Totowa NJ) and CuSO4 at concentrations ranging from 0 to 1000 μM. The supplementation of silver nitrate in the range of 1-20 mg l^-1 is optional. Selection agents such as 2-6 mg l^-1 Glufosinate ammonium (Greyhound, United Kingdom) and 10-500 ppm sulfonylurea herbicide e.g. Nicosulfuron (DuPont, France) and Rimsulfuron (DuPont, France) were incorporated in RZ regeneration medium. A second three-week culture passage on the same medium was performed as required, with or without a selection agent. Following culture on RZ regeneration medium, plantlets were cultured for one or two three-week passages on R0 medium (RZ without hormones, AgNO3 and CuSO4 supplementation), with or without the selection agent. To determine the effects of increased copper concentration on shoot regeneration, embryogenic calluses were subcultured onto RZ regeneration medium (see Example 1) supplemented with CuSO4 at concentrations ranging from 0 to 1000 μM. Prior to transfer onto RZ regeneration medium, calluses were induced from scutellar tissues. Procedures for the growth of donor plant materials, isolation of explants and culture initiation are described in Example 1. Following culture on CuSO4 medium, the calluses were transferred to R0 medium (see Example 1). After three weeks, regeneration frequencies of calluses, average number of plant per callus, as well as shoot quality were noted. Regeneration frequency is calculated as the number of shoot-producing calluses divided by the total number of scutella isolated. Percent (%) regeneration is […] multiplied by 100.

Another experiment deals with wheat scutellar tissues. The experiment is described as follows: Recovery of transgenic wheat lines and plant escapes after particle bombardment, with 100 μM copper in regeneration medium. Type of experiment: cell-based.
Experiment [2] deals with callus cultures in hexaploid wheat. As to conditions: cited from earlier work.
The subject of experiment [3] is cultures of the anther of tetraploid (pasta) wheat. As to conditions: cited from earlier work.
Setting [4] is: 100 μM copper, PPT selection, different genotypes (Example 4).

Read-outs that look alike come from different tables or passages of the source.

Turning to `O=S(=O)([O-])[O-].[Cu+2]` [CuSO4], the shoot quality entry in experiment [1] (copper levels up to 500 μM, Riband and Imp, versus control 0.1 μM copper) is “vigorous and prolific”. In addition, the results for the “optimum range of copper concentration” value in experiment [1] (variety Eole) and in experiment [1] (variety NH535) were 100 to 150 µM and 100 to 200 µM, respectively. Further, the regeneration frequencies in experiment [1] (wheat variety Eole, CuSO4 levels up to 300 μM) stood at 100%; in experiment [1] (wheat variety NH535, CuSO4 levels up to 300 μM), 100%. The Plant regeneration frequency in experiment [1] (wheat variety Imp, CuSO4 levels up to 300 μM) was 100%; in experiment [1] (wheat variety Riband, levels up to 500 μM CuSO4), 100%. The “effect on regeneration frequency” value in experiment [1] (while improving shoot quality) is listed as “no negative effect”. The transformation frequency result in the experiment on wheat scutellar tissues (100 μM CuSO4, Cadenza and NH535, PPT and sulfonylurea selection systems) is “improved”. Moreover, the “frequency of plant escapes” value with wheat scutellar tissues (setting [4]) was “did not have an important effect”. Also, the “recovery of transformants / transformation efficiencies” value in the experiment with wheat scutellar tissues (setting [4]) is given as “improved”. Further, the plant escape frequency entry in the experiment with wheat scutellar tissues (100 μM copper, plasmid pHP8092, PPT selection, varieties Cadenza and NH535) is “slightly higher”. In addition, in the experiment on wheat scutellar tissues (100 μM copper, variety Cadenza, PPT selection, constructs p15629 and pAHC20), the plant escapes result is given as “clear reduction”. Further, the escape frequency result in the experiment with wheat scutellar tissues (100 μM copper, variety NH535, sulfonylurea selection, construct pML146) is listed as “higher”. Also, the “regeneration rates relative to original MS copper level (0.1 μM)” value in experiment [2] (10 μM CuSO4, Purnhauser 1991) was “eight times higher”. In addition, the “optimum Cu level” value in experiment [2] ("more detailed" studies cited in Purnhauser 1991) is 2 µM; in experiment [2] (Purnhauser 1991 study) it was 10 µM. Also, the “maximum regeneration frequency achieved” value in experiment [2] (optimum 10 μM Cu, single breeding line, Purnhauser 1991) is given as 59%. Also, the “production of embryoid from anthers versus control treatment” value in experiment [3] (20 or 40 μM CuSO4, three of four genotypes) is on record as “increased”. Besides, the embryoid production result in experiment [3] (fourth genotype, all levels tested (10, 20 or 40 μM)) is on record as “reduced”. Moreover, the “production of green plants versus control media” value in experiment [3] (over the four genotypes, copper-containing media) is “lower”.
